Assay results as given in patent US5753648A, “Tricyclic benzazepine vasopressin antagonists” (American Cyanamid Company, priority 1996, dated 1998).

How the values were obtained:
[1] = molecular target: T1, Rat Kidney Medullary V2 Receptors (Rattus norvegicus, UniProt Q00788); assay: biochemical; assay type: binding
T1 construct: Medullary tissues from rat kidneys are dissected out; from tissue; host or cells: rat kidney medulla membranes

oxytocin receptors = molecular target: T2, oxytocin receptors (Rattus norvegicus, UniProt P70536); assay: Oxytocin Receptor Binding
T2 sequence (P70536 1-388): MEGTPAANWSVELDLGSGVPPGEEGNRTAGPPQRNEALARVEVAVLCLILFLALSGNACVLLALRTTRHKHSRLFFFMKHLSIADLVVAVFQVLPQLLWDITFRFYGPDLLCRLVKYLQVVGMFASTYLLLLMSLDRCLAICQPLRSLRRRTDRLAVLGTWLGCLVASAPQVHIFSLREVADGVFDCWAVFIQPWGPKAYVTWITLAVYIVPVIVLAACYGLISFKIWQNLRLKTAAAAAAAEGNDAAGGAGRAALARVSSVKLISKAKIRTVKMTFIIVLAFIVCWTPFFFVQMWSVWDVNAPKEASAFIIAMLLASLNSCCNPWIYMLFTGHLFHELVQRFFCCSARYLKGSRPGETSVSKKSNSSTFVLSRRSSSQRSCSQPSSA
Method: Female Sprague-Dawley rats weighing approximately 200-250 g are injected intramuscularly (i.m.) with 0.3 mg/kg of body weight of diethylstilbestrol (DES). The rats are sacrificed 18 hours later under pentobarbital anesthesia. The uteri are dissected out, cleaned of fat and connective tissues and rinsed in 50 ml of normal saline. The tissue pooled from six rats is homogenized in 50 ml of 0.01 mM Tris.HCl, containing 0.5 mM dithiothreitol and 1.0 mM EDTA, adjusted to pH 7.4, using a polytron at setting 6 with three passes of 10 sec each. The homogenate is passed through two (2) layers of cheesecloth and the filtrate centrifuged at 1000×g for 10 min. The clear supernatant is removed and recentrifuged at 165,000×g for 30 min. The resulting pellet containing the oxytocin receptors is resuspended in 50.0 mM Tris.HCl containing 5.0 mM MgCl2 at pH 7.4, to give a protein concentration of 2.5 mg/ml of tissue suspension. This preparation is used in subsequent binding assays with [^3 H]Oxytocin.
Binding of 3,5-[^3 H]Oxytocin ([^3 H]OT) to its receptors is done in microtiter plates using [^3 H]OT, at various concentrations, in an assay buffer of 50.0 mM Tris.HCl, pH 7.4 and containing 5.0 mM MgCl2, and a mixture of protease inhibitors: BSA, 0.1 mg; aprotinin, 1.0 mg; 1,10-phenanthroline, 2.0 mg; trypsin, 10.0 mg; and PMSF, 0.3 mg per 100 ml of buffer solution. Non-specific binding is determined in the presence of 1.0 uM unlabeled OT. The binding reaction is terminated after 60 min., at 220° C., by rapid filtration through glass fiber filters using a Brandel® cell harvester (Bio-medical Research and Development Laboratories, Inc., Gaithersburg, Md.). Competition experiments are conducted at equilibrium using 1.0 nM [^3 H]OT and varying the concentration of the displacing agents. The concentrations of agent displacing 50% of [^3 H]OT at its sites (IC50) are calculated by a computer assisted LUNDON-2 program (LUNDON SOFTWARE INC., Ohio, USA).

Rat Hepatic V1 Receptors = Rat Hepatic V1 Receptors (Rattus norvegicus, UniProt P30560); assay: Binding Assay to Rat Hepatic V1 Receptors
Rat Hepatic V1 Receptors, sequence (P30560 whole entry): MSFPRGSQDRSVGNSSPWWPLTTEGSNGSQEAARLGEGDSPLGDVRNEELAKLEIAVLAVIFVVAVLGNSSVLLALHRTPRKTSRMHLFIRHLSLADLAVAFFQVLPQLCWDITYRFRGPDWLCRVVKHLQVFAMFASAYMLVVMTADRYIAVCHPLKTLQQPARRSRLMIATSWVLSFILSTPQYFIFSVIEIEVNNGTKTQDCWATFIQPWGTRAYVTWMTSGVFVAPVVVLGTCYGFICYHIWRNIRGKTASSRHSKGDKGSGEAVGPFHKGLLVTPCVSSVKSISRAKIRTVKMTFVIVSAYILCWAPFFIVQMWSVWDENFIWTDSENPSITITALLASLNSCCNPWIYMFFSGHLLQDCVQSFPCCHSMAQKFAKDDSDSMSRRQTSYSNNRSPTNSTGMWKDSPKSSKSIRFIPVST
Method: Binding Assay to Rat Hepatic V1 Receptors
Rat liver plasma membranes expressing the vasopressin V1 receptor subtypes are isolated by sucrose density gradient according to the method described by Lesko et al, (1973). These membranes are quickly suspended in 50.0 mM Tris.HCl buffer, pH 7.4, containing 0.2% bovine serum albumin (BSA) and 0.1 mM phenylmethylsulfonylfluoride (PMSF) and kept frozen at -70° C. until used in subsequent binding experiments. For binding experiments, the following is added to the wells of a ninety-six well format microtiter plate: 100 μl of 100.0 mM Tris.HCl buffer containing 10.0 mM MgCl2, 0.2% heat inactivated BSA and a mixture of protease inhibitors: leupeptin, 1.0 mg %; aprotinin, 1.0 mg %; 1,10-phenanthroline,2.0 mg %; trypsin inhibitor, 10.0 mg % and 0.1 mM PMSF, 20.0 μl of [phenylalanyl-3,4,5,-^3 H] vaso-pressin (S.A. 45.1 Ci/mmole) at 0.8 nM, and the reaction initiated by the addition of 80 μl of tissue membranes containing 20 μg of tissue protein. The plates are kept undisturbed on the bench top at room temperature for 120 min. to reach equilibrium. Non-specific samples are assayed in the presence of 0.1 μm of the unlabeled antagonist phenylalanylvasopressin, added in 20.0 μl volume. For test compounds, these are solubilized in 50% dimethylsulfoxide (DMSO) and added in 20.0 μl volume to a final incubation volume of 200 μl. Upon completion of binding, the content of each well is filtered off, using a Brandel® cell Harvester (Gaithersburg, Md.). The radioactivity trapped on the filter disk by the ligand-receptor complex is assessed by liquid scintillation counting in a Packard LS Counter, with an efficiency of 65% for tritium. The data are analyzed for IC50 values by the LUNDON-2 program for competition (LUNDON SOFTWARE, Ohio).

T1 sequence (Q00788 whole entry): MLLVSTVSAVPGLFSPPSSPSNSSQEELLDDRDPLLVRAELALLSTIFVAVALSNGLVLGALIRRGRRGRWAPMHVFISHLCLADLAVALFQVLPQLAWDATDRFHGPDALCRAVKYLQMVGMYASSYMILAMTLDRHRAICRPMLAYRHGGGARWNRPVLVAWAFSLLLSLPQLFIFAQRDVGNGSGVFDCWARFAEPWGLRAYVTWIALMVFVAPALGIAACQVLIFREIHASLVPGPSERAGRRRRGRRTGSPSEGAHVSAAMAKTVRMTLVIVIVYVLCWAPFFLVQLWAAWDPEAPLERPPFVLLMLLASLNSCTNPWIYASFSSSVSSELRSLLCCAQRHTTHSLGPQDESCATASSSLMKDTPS

- IC50 [1]: 0.004 µM
- inhibition at 10 µM (oxytocin receptors; dose 10 μM): 92%
- IC50 (oxytocin receptors; rat uterine membranes, [3H]oxytocin): 0.2 µM
- IC50 (Rat Hepatic V1 Receptors): 0.033 µM
Compound: Cc1ccc(F)cc1C(=O)Nc1ccc(C(=O)N2Cc3cccn3Cc3ccccc32)cn1 [Example 1, N-[5-(5H-Pyrrolo[2,1-c][1,4]benzodiazetin-10(11H)-ylcarbonyl)-2-pyridinyl]-5-fluoro-2-methylbenzamide]
